Assays:
HCC1937 cells = assay: BrdU pulse / PI bivariate FACS analysis of replisome stability; type: cell-based; conditions: mock siRNA-treated HCC1937 cells
Description: BRCA1 has been implicated previously in the cellular response to IR, and BRCA1-deficient cells fail to activate Chk1 following IR exposure. The inventors investigated the effect of siRNA-mediated knockdown of Claspin in HCC1937 cells which lack functional BRCA1 and which have been previously shown to have a defective G2 checkpoint, failing to arrest on exposure to IR. […] The loss of BrdU incorporation was particularly observed in mid- to late-S phase cells.
(§1) HeLa or HCC1937 cells were seeded at 5×10^4 or 2×10^5 cells into 6-well tissue culture plates respectively, in 1 mL of their media and left for 24 hours. Cells were then washed twice with warm PBS and transfected twice over 48 hours with SMARTpool™ siRNA against Claspin (Dharmacon, Chicago, Ill., USA) at a concentration of 100 nM for 5 hours in serum free media (OptiMEM (Invitrogen)) using Oligofectamine (Invitrogen) as per manufacturer's instructions. After each transfection, cells were then washed once with warm PBS, and 1.5 mL of media added and then left for 19 hours. After transfection cells were trypsinized and seeded into 60 mm dishes and left in fresh media for 24 hours before being treated with either 0 or 2 mM HU for 24 hours. Alternatively cells were untreated, left in a flow cabinet for an equivalent time. […]

HeLa cells = assay: as above; type: cell-based; conditions: hydroxyurea 24 hr
Description: In order to evaluate the effect of Claspin depletion on replisome stability, the ability of Claspin-depleted cells to maintain functional replisomes in the continuous presence of imposed replicational stress was investigated (FIG. 1). To do this, cells were treated with buffer control or 2 mM hydroxyurea (HU) for 24 h, then exposed to a 30 min pulse of BrdU, prior to fixation and PI staining, and subsequent bivariate FACS analysis.
as §1

MDC1 = molecular target: T1, MDC1 (UniProt Q14676 1-2089); assay: co-immunoprecipitation with anti-Chk1 antibody from HeLa cell extracts, immunoblot
T1 construct: Endogenous protein in HeLa whole cell extract
T1 sequence (Q14676 whole entry): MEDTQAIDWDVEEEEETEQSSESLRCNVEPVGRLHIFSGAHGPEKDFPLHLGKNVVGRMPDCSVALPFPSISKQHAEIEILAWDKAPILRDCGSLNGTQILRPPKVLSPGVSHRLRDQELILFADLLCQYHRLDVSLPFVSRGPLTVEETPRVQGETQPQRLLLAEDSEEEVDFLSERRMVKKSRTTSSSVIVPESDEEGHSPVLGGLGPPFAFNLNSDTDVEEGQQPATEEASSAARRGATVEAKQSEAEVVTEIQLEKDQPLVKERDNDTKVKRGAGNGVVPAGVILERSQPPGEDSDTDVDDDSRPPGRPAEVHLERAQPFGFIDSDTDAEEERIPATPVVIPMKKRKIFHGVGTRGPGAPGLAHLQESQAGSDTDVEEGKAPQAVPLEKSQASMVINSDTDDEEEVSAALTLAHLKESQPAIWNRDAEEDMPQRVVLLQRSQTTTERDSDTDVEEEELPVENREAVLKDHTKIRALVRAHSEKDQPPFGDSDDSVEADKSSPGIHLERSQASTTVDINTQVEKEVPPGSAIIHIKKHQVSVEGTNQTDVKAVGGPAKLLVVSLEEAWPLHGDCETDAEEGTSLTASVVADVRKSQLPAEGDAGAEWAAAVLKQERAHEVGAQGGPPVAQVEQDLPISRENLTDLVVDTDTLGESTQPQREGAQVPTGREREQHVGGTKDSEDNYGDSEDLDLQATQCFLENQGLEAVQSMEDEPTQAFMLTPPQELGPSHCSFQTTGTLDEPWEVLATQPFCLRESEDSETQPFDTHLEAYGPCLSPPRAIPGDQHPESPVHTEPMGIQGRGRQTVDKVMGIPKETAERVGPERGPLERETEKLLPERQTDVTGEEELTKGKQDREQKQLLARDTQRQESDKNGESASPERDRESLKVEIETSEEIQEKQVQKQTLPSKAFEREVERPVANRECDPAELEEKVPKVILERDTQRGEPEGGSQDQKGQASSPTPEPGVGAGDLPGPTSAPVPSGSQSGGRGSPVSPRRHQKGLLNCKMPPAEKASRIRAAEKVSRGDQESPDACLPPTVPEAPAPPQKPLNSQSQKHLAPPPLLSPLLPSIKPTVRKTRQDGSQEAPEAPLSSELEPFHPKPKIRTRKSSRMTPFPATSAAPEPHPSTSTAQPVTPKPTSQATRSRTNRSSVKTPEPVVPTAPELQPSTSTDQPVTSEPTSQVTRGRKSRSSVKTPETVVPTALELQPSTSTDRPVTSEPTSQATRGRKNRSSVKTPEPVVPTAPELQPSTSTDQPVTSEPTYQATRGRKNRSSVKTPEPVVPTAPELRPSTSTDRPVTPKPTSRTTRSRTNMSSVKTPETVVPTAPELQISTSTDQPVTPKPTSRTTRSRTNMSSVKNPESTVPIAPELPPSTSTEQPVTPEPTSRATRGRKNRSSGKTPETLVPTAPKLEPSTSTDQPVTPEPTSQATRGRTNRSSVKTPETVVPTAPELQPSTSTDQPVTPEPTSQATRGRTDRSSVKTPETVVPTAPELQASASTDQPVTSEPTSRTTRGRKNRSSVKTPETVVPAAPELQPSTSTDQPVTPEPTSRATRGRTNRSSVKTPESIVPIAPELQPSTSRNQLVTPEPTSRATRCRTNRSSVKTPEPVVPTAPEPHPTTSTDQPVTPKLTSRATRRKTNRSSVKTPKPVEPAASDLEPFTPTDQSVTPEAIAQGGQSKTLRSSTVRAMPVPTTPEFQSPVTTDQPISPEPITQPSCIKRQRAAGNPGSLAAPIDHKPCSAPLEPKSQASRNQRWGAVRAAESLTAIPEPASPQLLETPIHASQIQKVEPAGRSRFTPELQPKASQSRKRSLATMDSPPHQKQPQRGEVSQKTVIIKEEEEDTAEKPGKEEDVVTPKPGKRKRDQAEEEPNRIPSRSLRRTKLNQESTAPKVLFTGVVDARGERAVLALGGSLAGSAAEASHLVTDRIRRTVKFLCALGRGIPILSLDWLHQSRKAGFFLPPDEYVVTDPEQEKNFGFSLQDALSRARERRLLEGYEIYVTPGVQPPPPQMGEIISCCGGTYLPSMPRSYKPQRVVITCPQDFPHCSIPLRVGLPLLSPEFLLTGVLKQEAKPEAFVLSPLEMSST
Description: (§2) Cells were then lysed through 3 freeze/thaw cycles, and clarified by centrifugation at 14,000 rpm for 5 mins at 4° C. The supernatant was then removed and assayed for concentration by Bradford assay (Pierce) and aliquots stored at −70° C. until use. For immunoblotting 25-60 μg of whole cell extract was used per well in Laemmli SDS loading buffer. Extracts were separated on 6-12% SDS-PAGE gels before being transferred to nitrocellulose membrane (Protran) for probing. Membranes were blocked in either 5% Marvel milk or 5% BSA according to antibody manufacturer's guidelines. Membranes were then washed before being probed with primary antibodies diluted in blocking buffer. […] Secondary antibodies were anti-rabbit IgG-HRP, anti-sheep IgG-HRP and anti-mouse IgG-HRP (Jackson Immunologicals) and bands were detected using enhanced chemiluminescence (ECL) (Amersham Pharmacia) and autoradiographic film (FUJI film).
(§3) Immunoprecipitation (IP) as carried out with 500 μg to 1 mg of whole cell extract per IP. […] Complexes isolated were then analysed by immunoblotting.

TopBP1 = molecular target: T2, TopBP1 (UniProt Q92547 1-1522); assay: as above
T2 construct: Endogenous protein in HeLa whole cell extract
T2 sequence (Q92547 whole entry): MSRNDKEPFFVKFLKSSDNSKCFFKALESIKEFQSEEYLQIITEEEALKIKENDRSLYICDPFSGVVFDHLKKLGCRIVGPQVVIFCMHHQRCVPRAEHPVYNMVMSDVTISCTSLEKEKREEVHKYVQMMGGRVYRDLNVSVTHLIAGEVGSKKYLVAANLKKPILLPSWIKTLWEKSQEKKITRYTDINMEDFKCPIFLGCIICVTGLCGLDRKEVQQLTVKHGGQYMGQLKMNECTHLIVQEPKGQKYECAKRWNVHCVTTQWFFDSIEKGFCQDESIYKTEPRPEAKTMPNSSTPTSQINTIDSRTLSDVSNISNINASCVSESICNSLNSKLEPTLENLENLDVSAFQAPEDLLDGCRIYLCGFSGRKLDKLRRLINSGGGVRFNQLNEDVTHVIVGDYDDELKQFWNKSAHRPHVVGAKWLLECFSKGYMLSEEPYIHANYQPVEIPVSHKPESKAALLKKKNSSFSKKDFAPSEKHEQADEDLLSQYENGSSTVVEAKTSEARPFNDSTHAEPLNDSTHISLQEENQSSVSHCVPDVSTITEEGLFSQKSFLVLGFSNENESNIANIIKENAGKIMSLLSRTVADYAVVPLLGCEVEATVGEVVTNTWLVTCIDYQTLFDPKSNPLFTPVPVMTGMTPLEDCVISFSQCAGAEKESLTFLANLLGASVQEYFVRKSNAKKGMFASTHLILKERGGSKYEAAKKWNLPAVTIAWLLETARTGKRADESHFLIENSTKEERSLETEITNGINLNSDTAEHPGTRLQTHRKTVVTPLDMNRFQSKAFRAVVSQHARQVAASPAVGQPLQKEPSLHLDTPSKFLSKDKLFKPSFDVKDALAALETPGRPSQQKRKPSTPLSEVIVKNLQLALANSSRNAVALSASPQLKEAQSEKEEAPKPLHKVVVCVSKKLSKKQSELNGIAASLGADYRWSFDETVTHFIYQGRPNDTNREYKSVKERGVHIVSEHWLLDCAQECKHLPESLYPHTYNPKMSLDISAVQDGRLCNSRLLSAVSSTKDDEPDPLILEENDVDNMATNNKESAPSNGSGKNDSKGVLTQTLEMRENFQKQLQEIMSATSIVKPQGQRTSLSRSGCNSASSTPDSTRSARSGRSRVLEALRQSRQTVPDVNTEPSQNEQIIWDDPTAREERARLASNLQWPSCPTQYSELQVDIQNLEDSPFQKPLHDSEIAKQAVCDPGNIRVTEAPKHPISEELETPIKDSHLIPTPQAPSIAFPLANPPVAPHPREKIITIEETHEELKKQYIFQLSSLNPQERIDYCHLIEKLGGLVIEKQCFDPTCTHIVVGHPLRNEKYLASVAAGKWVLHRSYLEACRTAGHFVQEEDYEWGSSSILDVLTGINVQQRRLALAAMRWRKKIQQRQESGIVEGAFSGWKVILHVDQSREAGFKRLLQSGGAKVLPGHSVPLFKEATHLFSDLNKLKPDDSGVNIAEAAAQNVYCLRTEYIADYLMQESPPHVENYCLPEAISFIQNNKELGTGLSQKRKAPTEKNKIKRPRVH
Description: as §2, §3

Row | binding result (MDC1) | binding result (TopBP1) | Molecule | accumulation of cells in early S-phase (HCC1937 cells) | accumulation of cells in early S phase (HeLa cells)
1 | – | – | NC(=O)NO [hydroxyurea] | accumulation of cells in early S-phase | significant accumulation of cells in early S phase
2 | no binding | no binding | Chk1 (serine/threonine protein kinase Chk1) (enzyme, UniProt O14757 1-476, looked up, Endogenous protein in HeLa whole cell extract; HeLa is a human cell line; also called Chk1 protein kinase) MAVPFVEDWDLVQTLGEGAYGEVQLAVNRVTEEAVAVKIVDMKRAVDCPENIKKEICINKMLNHENVVKFYGHRREGNIQYLFLEYCSGGELFDRIEPDIGMPEPDAQRFFHQLMAGVVYLHGIGITHRDIKPENLLLDERDNLKISDFGLATVFRYNNRERLLNKMCGTLPYVAPELLKRREFHAEPVDVWSCGIVLTAMLAGELPWDQPSDSCQEYSDWKEKKTYLNPWKKIDSAPLALLHKILVENPSARITIPDIKKDRWYNKPLKKGAKRPRVTSGGVSESPSGFSKHIQSNLDFSPVNSASSEENVKYSSSQPEPRTGLSLWDTSPSYIDKLVQGISFSQPTCPDHMLLNSQLLGTPGSSQNPWQRLVKRMTRFFTKLDADKSYQCLKETCEKLGYQWKKSCMNQVTISTTDRRNNKLIFKVNLLEMDDKILVDFRLSKGDGLEFKRHFLKIKGKLIDIVSSQKIWLPAT | – | –

Source: US20120121610A1, “THERAPEUTIC AGENT AND ASSAY” (priority 2009, published 2012)
